Results taken from US5075287A, “Muramyl peptide derivatives and immunoregulating compositions containing them” (priority 1989, dated 1991).
Read-outs that look alike come from different tables or passages of the source.

Assays:
[1] = test system: hepatitis B virus surface antigen (HBs); experiment: Hepatitis-vaccine enhancing activity (adjuvant activity): anti-HBs IgG in mouse serum by ELISA; assay type: in vivo, female CDF1 mice; conditions: Experiment 1, 5000-fold dilution
How it was run: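 Female CDF1 mice (n=7) given 0.2 ml i.p. of compound in lipid microspheres (1 mg/ml) mixed 1:1 with HBs antigen (50 μg/ml), boosted identically at 3 weeks. Sera from weekly fundus bleeds before and after boost. Anti-HBs IgG measured by ELISA.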

[2] = test system: L-1210 mouse leukemia cells; experiment: Activation of macrophages (growth inhibition of tumor cells by intraperitoneal macrophages of treated mice, MTT assay); assay type: cell-based; conditions: macrophages taken 3 days after i.p. 0.2 ml of 500 μg/ml, macrophage:L-1210 20:1, 72 hours
Protocol: A compound of the present invention was dissolved in lipidmicrosphere to obtain a solution in a concentration of 500μg/ml, and 0.2 ml of such solution was intraperitoneally administered to each mouse in one group consisting of seven female CDF1 mice. Intraperitoneal macrophages obtained three days after the administration and L-1210 mouse leukemia cells were mixed in the ratio of cell numbers of 20:1, respectively. Two hundred μl of the mixture was placed in each well of one sheet of 96 well microtiter plate. After 72 hours, the increase of the cell number in each well was determined by a MTT assay method. The ratio of the cell number for the mixture of the L-1210 cells and the macrophage relative to the cell number for the L-1210 cells only(growth inhibitory ratio) was determined, and the results are shown in Table 3.

[3] = test system: influenza HA vaccine (B/Nagasaki/1/87 strain); assay type: in vivo, female CDF1 mice; conditions: Experiment 1, 5000-fold dilution
[4] = 1 W after i.p. administration, compound in lipidmicrosphere + HBs
[5] = 4 W (after secondary stimulation at 3 weeks)
[6] = 5 W (after secondary stimulation at 3 weeks)
[7] = 1 W after i.p. administration, compound in lipidmicrosphere + HA vaccine

SMILES	Anti-HBs IgG antibody level in serum (ELISA absorbance at 415 nm) [1, 4]	Anti-HBs IgG antibody level in serum (ELISA absorbance at 415 nm) ([1]; 2 W)	Anti-HBs IgG antibody level in serum (ELISA absorbance at 415 nm) ([1]; 3 W)	Anti-HBs IgG antibody level in serum (ELISA absorbance at 415 nm) [1, 5]	Anti-HBs IgG antibody level in serum (ELISA absorbance at 415 nm) [1, 6]	Growth inhibitory ratio of L-1210 mouse leukemia cells [2]	Anti HA serum antigen value (average value ± S.D.) [3, 7]	Anti HA serum antigen value (average value ± S.D.) ([3]; 2 W)	Anti HA serum antigen value (average value ± S.D.) ([3]; 3 W)	Anti HA serum antigen value (average value ± S.D.) [3, 5]	Anti HA serum antigen value (average value ± S.D.) [3, 6]
CCCCCCCCCCCCCC(=O)O[C@H](CCCCCCCCCCC)CC(=O)O[C@H]1O[C@H](COC(=O)CCCCCCCCC)[C@@H](O)[C@H](O[C@H](C)C(=O)N[C@@H](C)C(=O)N[C@H](CCC(=O)OC)C(N)=O)[C@H]1NC(C)=O [Example 11, N-[2-0-{2-Acetamido-2,3-dideoxy-6-0-decanoyl-1-0((3R)-3-tetradecanoyloxytetradecanoyl)-α-D-glucopyranos-3-yl}-D-lactoyl]-L-alanyl-D-isoglutaminemethylester]	0.010 ± 0.002 O.D 415 nm	0.083 ± 0.002 O.D 415 nm	0.124 ± 0.003 O.D 415 nm	0.602 ± 0.009 O.D 415 nm	0.716 ± 0.020 O.D 415 nm	59.7%	0 O.D 415 nm	0.073 ± 0.000 O.D 415 nm	0.160 ± 0.005 O.D 415 nm	1.059 ± 0.016 O.D 415 nm	1.050 ± 0.003 O.D 415 nm
CCCCCCCCCCCCCCC(CCCCCCCCCCCCCC)C(=O)O[C@H]1O[C@H](COC(=O)CCCCCCCCCCCCC)[C@@H](O)[C@H](O[C@H](C)C(=O)N[C@@H](C)C(=O)N[C@H](CCC(=O)OC)C(N)=O)[C@H]1NC(C)=O [Example 6, N-[2-0-{2-Acetamido-2,3-dideoxy-6-0-tetradecanoyl-1-0-(2-tetradecylhexadecanoyl)-α-D-glucopyranos-3-yl}-D-lactoyl]-L-alanyl-D-isoglutamine methylester]	0 O.D 415 nm	0.020 ± 0.002 O.D 415 nm	0.069 ± 0.001 O.D 415 nm	0.477 ± 0.005 O.D 415 nm	0.529 ± 0.005 O.D 415 nm	63.0%	0.001 ± 0.001 O.D 415 nm	0.013 ± 0.002 O.D 415 nm	0.259 ± 0.004 O.D 415 nm	1.025 ± 0.013 O.D 415 nm	1.159 ± 0.013 O.D 415 nm
CCCCCCCCCCCCCCC(CCCCCCCCCCCCCC)C(=O)S[C@@H]1O[C@H](COC(=O)CCCCCCCCC)[C@@H](O)[C@H](O[C@H](C)C(=O)N[C@@H](C)C(=O)N[C@H](CCC(=O)OC)C(N)=O)[C@H]1NC(C)=O [Example 8, N-[2-0-{2-Acetamido-2,3-dideoxy-6-0-decanoyl-1-S-(2-tetradecylhexadecanoyl)-1-thio-β-D-glucopyranos-3--yl}-D-lactoyl]-L-alanyl-D-isoglutamine methylester]	0 O.D 415 nm	0.067 ± 0.003 O.D 415 nm	0.114 ± 0.002 O.D 415 nm	0.897 ± 0.012 O.D 415 nm	0.845 ± 0.016 O.D 415 nm	57.9%	0.001 ± 0.001 O.D 415 nm	0.105 ± 0.005 O.D 415 nm	0.246 ± 0.004 O.D 415 nm	1.246 ± 0.019 O.D 415 nm	1.267 ± 0.023 O.D 415 nm
CCCCCCCCCCCCCCCCCC(=O)OC[C@H]1O[C@H](OC(=O)C[C@@H](CCCCCCCCCCC)OC(=O)CCCCCCCCCCCCC)[C@H](NC(C)=O)[C@@H](O[C@H](C)C(=O)N[C@@H](C)C(=O)N[C@H](CCC(=O)OC)C(N)=O)[C@@H]1O [Example 13, N-[2-0-{2-Acetamido-2,3-dideoxy-6-0-octadecanoyl-1-0-((3R)-3-tetradecanoyloxytetradecanoyl)-α-D-glucopyranos-3-yl}-D-lactoyl]-L-alanyl-D-isoglutamine methylester]	0 O.D 415 nm	0.081 ± 0.003 O.D 415 nm	0.126 ± 0.003 O.D 415 nm	0.635 ± 0.011 O.D 415 nm	0.742 ± 0.016 O.D 415 nm	39.7%	0 O.D 415 nm	0.088 ± 0.004 O.D 415 nm	0.140 ± 0.001 O.D 415 nm	0.868 ± 0.010 O.D 415 nm	0.824 ± 0.002 O.D 415 nm
CCCCCCCCCCCCCCCCCC(=O)OC[C@H]1O[C@@H](SC(=O)C[C@@H](CCCCCCCCCCC)OC(=O)CCCCCCCCCCCCC)[C@H](NC(C)=O)[C@@H](O[C@H](C)C(=O)N[C@@H](C)C(=O)N[C@H](CCC(=O)OC)C(N)=O)[C@@H]1O [Example 16, N-[2-0-{2-Acetamido-2,3-dideoxy-6-0-octadecanoyl-1-S-((3R)-3-tetradecanoyloxytetradecanoyl)-1-thio-β-D-glucopyranos-3-yl}-D-lactoyl]-L-alanyl-D-isoglutamine methylester]	0 O.D 415 nm	0.079 ± 0.004 O.D 415 nm	0.103 ± 0.004 O.D 415 nm	0.850 ± 0.008 O.D 415 nm	0.903 ± 0.021 O.D 415 nm	76.3%	0.001 ± 0.001 O.D 415 nm	0.145 ± 0.004 O.D 415 nm	0.257 ± 0.010 O.D 415 nm	1.251 ± 0.010 O.D 415 nm	1.262 ± 0.026 O.D 415 nm
CCCCCCCCCCCCCCC(CCCCCCCCCCCCCC)C(=O)O[C@H]1O[C@H](CO)[C@@H](O)[C@H](O[C@H](C)C(=O)N[C@@H](C)C(=O)N[C@H](CCC(=O)OC)C(N)=O)[C@H]1NC(C)=O [Example 1]	0.001 ± 0.001 O.D 415 nm	0.018 ± 0.000 O.D 415 nm	0.074 ± 0.002 O.D 415 nm	0.815 ± 0.011 O.D 415 nm	0.843 ± 0.005 O.D 415 nm	40.0%	0.007 ± 0.003 O.D 415 nm	0.174 ± 0.003 O.D 415 nm	0.232 ± 0.003 O.D 415 nm	1.243 ± 0.036 O.D 415 nm	1.201 ± 0.002 O.D 415 nm
CCCCCCCCCCCCCC(=O)O[C@H](CCCCCCCCCCC)CC(=O)O[C@H]1O[C@H](CO)[C@@H](O)[C@H](O[C@H](C)C(=O)N[C@@H](C)C(=O)N[C@H](CCC(=O)OC)C(N)=O)[C@H]1NC(C)=O [Example 3, N-[2-0-{2-Acetamido-2,3-dideoxy-1-0-((3R)-3-tetradecanoyloxytetradecanoyl)-α-D-glucopyranos-3-yl}-D-lactoyl]-L-alanyl-D-isoglutamine methylester]	0 O.D 415 nm	0.027 ± 0.001 O.D 415 nm	0.064 ± 0.003 O.D 415 nm	0.631 ± 0.006 O.D 415 nm	0.692 ± 0.009 O.D 415 nm	42.6%	0.009 ± 0.000 O.D 415 nm	0.182 ± 0.003 O.D 415 nm	0.292 ± 0.004 O.D 415 nm	0.122 ± 0.020 O.D 415 nm	1.140 ± 0.013 O.D 415 nm
